# Results: patent US9776990B2, “Isoindolone derivatives” (AbbVie Inc., priority 2012, dated 2017)
# Marks after values point to notes of the source that are not given here.
# Columns and labels:
# [1] = tested on: Ramos human B cell lymphoma cancer xenograft; assay: Xenograft tumor growth inhibition assay, Ramos; format: in vivo, mice; conditions: 100 mg/kg/day PO
# Description: (§1) The effect of the compound of Example 40 to inhibit the growth of Ramos, OPM-2, MX-1, MV4-11, and HT1080 xenograft tumors was evaluated. Briefly, 0.5×10^6 human cancer cells (HT1080), 1×10^6 human cancer cells (Ramos), 5×10^6 human cancer cells (OPM-2, MV4-11) or 1:10 tumor brie (MX-1) (in S-MEM (MEM, Suspension, no Calcium, no Glutamine)) (Life Technologies Corporation) were inoculated subcutaneously into the right hind flank of female SCID or SCID-beige (MV4-11, HT1080) mice (Charles Rivers Labs) on study day 0. Compound was formulated in 2% EtOH, 5% Tween-80, 20% PEG-400, 73% HPMC (Ramos, OPM-2 and MX-1) or 5% DMSO, 5% EtOH, 30% PEG400, 60% Phosal 53 (MV4-11, HT1080). Administration of compound was initiated at the time of size match on day 8 (HT1080), day 17 (MX-1), or day 18 (Ramos, MV4-11, OPM-2). The tumors were measured by a pair of calipers twice a week starting at the time of size match and tumor volumes were calculated according to the formula V=L×W^2/2 (V: volume, mm^3; L: length, mm. W: width, m) Tumor volume was measured for the duration of the experiment until the mean tumor volume in each group reached an endpoint of >1000 mm^3.
# SKM1 = assay: Proliferation panel assay, SKM1; format: cell-based; conditions: Homo sapiens, SKM-1, 120 h; AML, SKM1, 5 days; read-out: Cellular Proliferation EC50
# Description: (§2) The impact of compounds of the Examples on cancer cell proliferation was determined using the breast cancer cell line MX-1 (ATCC) in a 3-day proliferation assay. MX-1 cells were maintained in RPMI supplemented with 10% FBS at 37 C.° and an atmosphere of 5% CO2. For compound testing, MX-1 cells were plated in 96-well black bottom plates at a density of 5000 cells/well in 90 μl of culture media and incubated at 37° overnight to allow cell adhesion and spreading. Compound dilution series were prepared in DMSO via a 3-fold serial dilution from 3 mM to 0.1 μM. […]
# (§3) Luminescence readings from the Cell Titer Glo assay were normalized to the DMSO treated cells and analyzed using the GraphPad Prism software with sigmoidal curve fitting to obtain EC50s. The minimum significant ratio (MSR) was determined to evaluate assay reproducibility (Eastwood et al., (2006) J Biomol Screen, 11: 253-261). The overall MSR was determined to be 2.1 and a moving MSR (last six run MSR overtime) has been <2.
# (§4) The compound of Example 40 was tested for its impact on proliferation of a panel of cancer cell line types (with specific cell lines tested) as set out in (Table 2). […] Cell proliferation data were analyzed as described above in the MX-1 proliferation assay to obtain the EC50 for the compounds reported in Table 2.
# [2] = tested on: LPS induced IL-6 production; assay: LPS (lipopolysaccharide) induced IL-6 production mouse assay; format: in vivo; conditions: mice, one hour before LPS, serum 2 hours after LPS
# Description: Compounds of the Examples listed in Table 8 were assayed for their ability to inhibit LPS (lipopolysaccharide) induced IL-6 production in mice. Severe combined immunodeficient female mice (8 per group) received an intraperitoneal challenge of lipopolysaccharide (2.5 mg/kg, L2630 E. coli 0111:B4) one hour after oral administration (PO) or intraperitoneal administration (IP) of compounds in a solution of 2% ethanol, 5% Tween-80, 20% PEG-400 and 73% (0.2% hydroxypropylmethylcellulose in water). Mice were euthanized 2 hours after lipopolysaccharide injection, blood was removed by cardiac puncture, and then the serum harvested from the blood samples was frozen at −80° C. On the day of the assay the serum samples were brought to room temperature and then diluted 1:20 in phosphate-buffered saline containing 2% bovine serum albumin. Interleukin-6 measurements were performed using a cytokine assay from Meso Scale Discovery (Gaithersburg, Md.) for mouse serum analysis according to the manufacturer's protocol and read on a SECTOR Imager 6000 (Meso Scale Discovery, Gaithersburg, Md.) instrument. Statistical analysis was performed using Prism software (version 5.0) incorporating Dunnett's one way ANOVA. The IL-6 mean and standard deviation of the group of vehicle treated animals were compared with the IL-6 mean and standard deviation of the group treated with drug. A p value <0.05 means that there is less than a 5% probability that the mean values in the two groups are equal.
# [3] = tested on: MX-1 human breast cancer xenograft; assay: Xenograft tumor growth inhibition assay, MX-1; format: in vivo, mice; conditions: MX-1 xenograft; for % TGI (tumor growth inhibition): QDx14, based on day 38; for % TGD (tumor growth delay): QDx14, endpoint 1000 mm^3
# Description: as §1
# H1975 = assay: Proliferation panel assay, H1975; format: cell-based; conditions: Homo sapiens, NCI-H1975, 120 h; NSCLC, H1975, 5 days; read-out: Cellular Proliferation EC50
# Description: as §2, §3, §4
# [4] = tested on: HT1080 human fibrosarcoma xenograft; assay: Xenograft tumor growth inhibition assay, HT1080; format: in vivo, mice; conditions: BID x 14, based on day 18
# Description: as §1
# NCI-H929 = assay: Proliferation panel assay, NCI-H929; format: cell-based; conditions: Homo sapiens, 120 h; Multiple Myeloma, NCI-H929, 5 days; read-out: Cellular Proliferation EC50
# Description: as §2, §3, §4
# OPM2 = assay: Proliferation panel assay, OPM2; format: cell-based; conditions: Homo sapiens, OPM-2, 120 h; Multiple Myeloma, OPM2, 5 days; read-out: Cellular Proliferation EC50
# Description: as §2, §3, §4
# MDAMB453 = assay: Proliferation panel assay, MDAMB453; format: cell-based; conditions: Homo sapiens, MDA-MB-453, 120 h; Breast, MDAMB453, 5 days; read-out: Cellular Proliferation EC50
# Description: as §2, §3, §4
structure (smiles),measurement,setting,value
"Cc1[nH]c(-c2cc(NS(C)(=O)=O)ccc2Oc2ccccc2)c2c1C(=O)CCC2 [Example 40, N-[3-(3-methyl-4-oxo-4,5,6,7-tetrahydro-2H-isoindol-1-yl)-4-phenoxyphenyl]methanesulfonamide]",% TGI (tumor growth inhibition),"[1]; BID (5on 3off) x 2, based on day 31",35*** %
same,% TGD (tumor growth delay),"[1]; BID (5on 3off) x 2, endpoint 1000 mm^3",40** %
same,% TGI (tumor growth inhibition),"[1]; QDx14, based on day 31",30* %
same,% TGD (tumor growth delay),"[1]; QDx14, endpoint 1000 mm^3",40* %
same,EC50,SKM1,39 nM
same,% inhibition of LPS induced IL-6 production,[2]; 3 mg/kg (PO),28.7 at 3 mg/kg (PO) %
same,% inhibition of LPS induced IL-6 production,[2]; 10 mg/kg (PO),52.4 at 10 mg/kg (PO) %
same,% inhibition of LPS induced IL-6 production,[2]; 30 mg/kg (PO),72.7 at 30 mg/kg (PO) %
same,% inhibition of LPS induced IL-6 production,[2]; 50 mg/kg (IP),84.7 at 50 mg/kg (IP) %
same,% TGI (tumor growth inhibition),"[3]; group 2, 100 mg/kg/day PO",78*** %
same,% TGD (tumor growth delay),"[3]; group 2, 100 mg/kg/day PO",29*** %
same,% TGI (tumor growth inhibition),"[3]; group 3, 30 mg/kg/day PO",48*** %
same,% TGD (tumor growth delay),"[3]; group 3, 30 mg/kg/day PO",22*** %
same,% TGI (tumor growth inhibition),"[3]; group 4, 10 mg/kg/day PO",18%
same,% TGD (tumor growth delay),"[3]; group 4, 10 mg/kg/day PO",17%
same,% TGI (tumor growth inhibition),"[3]; group 5, 100 mg/kg/day PO",80*** %
same,% TGD (tumor growth delay),"[3]; group 5, 100 mg/kg/day PO",28*** %
same,% TGI (tumor growth inhibition),"[3]; group 6, 20 mg/kg/day PO",30* %
same,% TGD (tumor growth delay),"[3]; group 6, 20 mg/kg/day PO",19* %
same,EC50,H1975,180 nM
same,% TGI (tumor growth inhibition),[4]; 10 mg/kg/day PO,−1%
same,% TGI (tumor growth inhibition),[4]; 30 mg/kg/day PO,14%
same,% TGI (tumor growth inhibition),[4]; 100 mg/kg/day PO,52** %
same,EC50,NCI-H929,41 nM
same,EC50,OPM2,18 nM
same,EC50,MDAMB453,220 nM
